In ChEMBL document CHEMBL5727111, “Pyrrolidinyl urea, pyrrolidinyl thiourea and pyrrolidinyl guanidine compounds as TrkA kinase inhibitors” (2019):

Target: High affinity nerve growth factor receptor (Homo sapiens, UniProt P04629)
Test: TrkA Omnia Assay: Trk enzymatic selectivity was assessed using Omnia Kinase Assay reagents from Invitrogen Corp. Enzyme (TrkA from Invitrogen Corp.) and test compound (various concentrations) were incubated for 10 minutes at ambient temperature in a 384-well white polypropylene plate (Nunc catalog#267462). Omnia Tyr Peptide #4, as well as ATP, were then added to the plate. Final concentrations were as follows: 20 nM enzyme, 500 μM of ATP, 10 μM peptide substrate. The assay buffer consisted of 25 mM MOPS pH 7.5, 0.005% (v/v) Triton X-100 and 5 mM MgCl2. The production of phosphorylated peptide was monitored continuously for 70 minutes using a Molecular Devices FlexStation II384 microplate reader (excitation=360 nm; emission=485 nm). Initial rates were calculated from the progress curves. IC50 values were calculated from these rates using either a 4 or 5-parameter logistic curve fit.

Chain of High affinity nerve growth factor receptor (P04629 whole entry): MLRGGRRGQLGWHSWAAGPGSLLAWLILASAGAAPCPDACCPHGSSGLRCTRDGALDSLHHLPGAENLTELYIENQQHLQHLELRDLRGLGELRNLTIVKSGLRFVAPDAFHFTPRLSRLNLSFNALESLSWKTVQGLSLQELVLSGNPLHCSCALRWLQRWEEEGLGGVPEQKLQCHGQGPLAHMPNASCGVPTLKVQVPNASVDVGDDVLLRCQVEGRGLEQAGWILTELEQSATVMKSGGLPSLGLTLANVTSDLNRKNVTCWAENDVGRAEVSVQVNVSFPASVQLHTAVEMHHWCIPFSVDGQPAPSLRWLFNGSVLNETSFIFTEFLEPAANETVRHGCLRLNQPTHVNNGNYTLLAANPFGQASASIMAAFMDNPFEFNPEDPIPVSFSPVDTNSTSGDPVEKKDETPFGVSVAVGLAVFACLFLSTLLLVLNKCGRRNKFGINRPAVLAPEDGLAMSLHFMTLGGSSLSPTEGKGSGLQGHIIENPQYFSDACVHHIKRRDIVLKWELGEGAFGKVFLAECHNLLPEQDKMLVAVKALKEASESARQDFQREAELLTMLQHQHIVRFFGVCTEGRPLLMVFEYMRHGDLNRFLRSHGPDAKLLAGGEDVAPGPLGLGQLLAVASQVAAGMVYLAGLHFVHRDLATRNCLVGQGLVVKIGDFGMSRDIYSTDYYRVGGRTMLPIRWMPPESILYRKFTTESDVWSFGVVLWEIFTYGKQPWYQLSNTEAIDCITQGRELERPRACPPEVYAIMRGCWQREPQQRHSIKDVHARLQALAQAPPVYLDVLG

IC50, < 100 nM:
COCCN1C[C@@H](NC(=O)Nc2c(Cl)c(C)nn2-c2ccccc2)[C@H](c2cc(F)cc(F)c2)C1
COc1ncccc1N1C[C@@H](NC(=O)Nc2c(C)c(-c3cnn(C)c3)nn2-c2ccccc2)[C@H](c2ccccc2)C1
COCCN1C[C@@H](NC(=O)Nc2c(C)c(-c3cnn(C)c3)nn2-c2ccccc2)[C@H](c2ccccc2)C1
COCCN1C[C@@H](NC(=O)Nc2c(C)c(-c3cnn(C)c3)nn2-c2cccc(F)c2)[C@H](c2ccc(F)cc2)C1
COCCN1C[C@@H](NC(=O)Nc2c(C)c(-c3cnn(C)c3)nn2-c2ccccc2)[C@H](c2ccc(C#N)cc2)C1
COCCN1C[C@@H](NC(=O)Nc2c(C)c(-c3cnn(C)c3)nn2-c2cccc(Cl)c2)[C@H](c2ccc(F)c(F)c2)C1
COCCN1C[C@@H](NC(=O)Nc2c(C)c(-c3cnn(C)c3)nn2-c2ccccc2)[C@H](c2ccc(F)cn2)C1 (relative stereo)
COCCN1C[C@@H](NC(=O)Nc2c(Br)c(C)nn2-c2ccccc2)[C@H](c2cc(F)cc(F)c2)C1
O=C(Nc1c2c(nn1-c1ccccc1)CCC2)N[C@@H]1CN(CC(F)F)C[C@H]1c1ccc(F)cc1 (relative stereo)
COCCN1C[C@@H](NC(=O)Nc2c(C)c(-c3cnn(C)c3)nn2-c2ccccc2)[C@H](c2cccc(C#N)c2)C1
COCCN1C[C@@H](NC(=O)Nc2c(C)c(-c3cnn(C)c3)nn2-c2ccccc2)[C@H](c2csnn2)C1 (relative stereo)
CCOc1nn(-c2ccccc2)c(NC(=O)N[C@@H]2CN(CCOC)C[C@H]2c2cncc(Cl)c2)c1C (relative stereo)
Cc1c(-c2ccc(=O)n(C)c2)nn(-c2ccccc2)c1NC(=O)N[C@H]1CN(CC(F)(F)F)C[C@@H]1c1ccccc1
COCCN1C[C@@H](NC(=O)Nc2c(C)c(-c3cnn(C)c3)nn2-c2ccc(F)c(Cl)c2)[C@H](c2ccc(F)c(F)c2)C1
CCOc1nn(-c2ccccc2)c(NC(=O)N[C@H]2CN(CC(F)(F)F)C[C@@H]2c2cccc(F)c2)c1C
COCCN1C[C@@H](NC(=O)Nc2cc(-c3ccc(C(=O)N(C)C)cc3)nn2C)[C@H](c2ccc(F)c(F)c2)C1
COCCN1C[C@@H](NC(=O)Nc2c(C)c(-c3cnn(C)c3)nn2-c2cccc(Cl)c2F)[C@H](c2ccc(F)c(F)c2)C1
COCCN1C[C@@H](NC(=O)Nc2c(Cl)c(-c3cnn(C)c3)nn2-c2ccccc2)[C@H](c2cncc(F)c2)C1
Cn1cc(-c2nn(-c3ccccc3)c(NC(=O)N[C@H]3CN(CC(F)(F)F)C[C@@H]3c3ccccc3)c2Cl)cn1
COCCN1C[C@@H](NC(=O)Nc2c(Br)c(C)nn2-c2ccccc2)[C@H](c2ccc(F)cn2)C1 (relative stereo)
COCCN1C[C@@H](NC(=O)Nc2c(C)c(-c3cnn(C)c3)nn2-c2ccccc2F)[C@H](c2ccc(F)cc2)C1
COCCN1C[C@@H](NC(=O)Nc2c(SC)c(C)nn2-c2ccccc2)[C@H](c2ccc(F)c(F)c2)C1
COCCN1C[C@@H](NC(=O)Nc2c(C)c(-c3cnn(C)c3)nn2-c2ccccc2)[C@H](c2ccc(F)c(F)c2)C1
